The EC50 is the concentration needed to bring the measured effect to its halfway point. The term AC50 denotes the concentration at which the activity in the assay is half-maximal. Usually IC50 stands for the point on the concentration scale where inhibition reaches its midpoint.

Here are results for 25 compounds from US12590062B2, “PD-1/PD-L1 inhibitors” (Gilead Sciences, Inc., priority 2017, dated 2026).

Each structure is given as a SMILES string.

Assay [1] addresses T1, PD-1/PD-L1 interaction (Homo sapiens, UniProt Q9NZQ7).
T1 construct: expressed in transfected cells; host or cells: CHO cells (aAPC-PD-L1) co-cultured with Jurkat cells overexpressing PD-1 and an NFAT-luciferase reporter
As to the kind of experiment: PD-1/PD-L1 NFAT reporter co-culture assay. The assay is classed as cell-based. As to conditions: Jurkat PD-1 NFAT-luciferase cells co-cultured with aAPC-PD-L1 CHO cells, 6 hrs at 37° C.; read-out: EC50 NFAT Luciferase. The gist of the method: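 Jurkat cells overexpressing PD-1 with NFAT-driven luciferase were mixed with compound in RPMI 1640/2% FBS and seeded onto overnight-plated CHO aAPC-PD-L1 cells expressing surface anti-CD3 and PD-L1. Co-culture ran 6 h at 37 °C; luminescence read with ONE-Glo; EC50 from four-parameter fit.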

For assay [2], the target named is T2, PD-L1 (Homo sapiens, UniProt Q9NZQ7).
T2 construct: determine if they can specifically dimerize the extracellular domains of PD-L1
T2 sequence (Q9NZQ7 19-238 limits assumed): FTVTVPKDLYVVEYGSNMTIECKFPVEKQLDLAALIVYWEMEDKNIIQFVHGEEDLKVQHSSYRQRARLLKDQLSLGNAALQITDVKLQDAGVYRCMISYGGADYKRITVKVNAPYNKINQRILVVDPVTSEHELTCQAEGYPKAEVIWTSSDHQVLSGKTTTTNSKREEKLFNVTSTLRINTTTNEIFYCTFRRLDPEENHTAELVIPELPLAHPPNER
T2 sequence (Q9NZQ7 19-238 limits assumed): as above
As to the kind of experiment: PD-L1/PD-L1 dimerization biochemical protein-protein interaction assay (ALPHA). The assay is classed as binding. As to conditions: compound-induced PD-L1 dimerization, head prints '1 nM' (0.5 nM His-tagged PD-L1 and 0.5 nM FLAG-tagged PD-L1), read-out: AC50 PDL1 Dimer Alpha 1 nM. A digest of the protocol:
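ALPHA proximity assay of compound-induced dimerization of 0.5 nM His-tagged and 0.5 nM FLAG-tagged PD-L1 extracellular domains in Hepes pH 7.4 buffer, 2 h at 25 °C. Anti-His acceptor then anti-FLAG donor beads, 60 min each; AC50 from four-parameter fit.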

Assay [3] addresses PD-1/PD-L1 (Homo sapiens, UniProt Q9NZQ7). Briefly: PD-1/PD-L1 biochemical protein-protein interaction assay (ALPHA). The assay is classed as binding. The note with it: 0.3 nM His tagged PD-L1, 2.5 nM biotinylated Fc-PD-1, 60 minutes at 25° C., read-out: IC50 PD-L1-PD-1 Alpha IC50-mono PD-L1-fcP-D1. The gist of the method:
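Compounds are tested for blocking the PD-1/PD-L1 extracellular-domain interaction using an ALPHA bead assay, in which inhibition lowers the luminescent signal. Reactions run 60 min at 25° C with 0.3 nM His-PD-L1 and 2.5 nM biotinylated Fc-PD-1. IC50 values come from four-parameter fits.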

PD-1/PD-L1, sequence (Q9NZQ7 19-238 limits assumed): as above
T1 sequence (Q9NZQ7 19-290): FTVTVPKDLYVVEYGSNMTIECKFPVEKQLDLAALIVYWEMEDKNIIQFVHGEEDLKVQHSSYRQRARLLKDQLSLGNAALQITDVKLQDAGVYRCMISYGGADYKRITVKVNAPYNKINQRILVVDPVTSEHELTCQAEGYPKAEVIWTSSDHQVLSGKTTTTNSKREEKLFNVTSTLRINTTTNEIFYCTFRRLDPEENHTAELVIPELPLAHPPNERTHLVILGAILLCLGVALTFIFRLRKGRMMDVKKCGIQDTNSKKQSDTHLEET

Turning to `COc1cc(-c2cccc(-c3cccc(COc4cc(OCc5cncc(C#N)c5)c(CNC[C@@H](O)CC(=O)O)cc4Cl)c3C)c2C)ccc1CN` [Example 507], the EC50 in assay [1] is 210 nM. Further, in assay [2], the AC50 was determined as 262 nM. Moreover, the IC50 in assay [3] is 0.693 nM.
Take `COc1cc(-c2cccc(-c3cccc(COc4cc(OCc5cncc(C#N)c5)c(CN[C@@](C)(CO)C(=O)O)cc4Cl)c3C)c2C)ccc1CNCC1CCC(=O)N1` (stereo partly drawn) [Example 508]: the EC50 in assay [1] came out at 156 nM. The AC50 in assay [2] was 78 nM. Moreover, in assay [3], the IC50 was 0.084 nM.
As for `COc1ccc(-c2cccc(-c3cccc(COc4cc(OCc5cncc(C#N)c5)c(CN[C@@](C)(CO)C(=O)O)cc4Cl)c3C)c2C)cc1CNCC1CCC(=O)N1` (stereo partly drawn) [Example 509], in assay [1], the EC50 was determined as 89 nM. Moreover, in assay [2], the AC50 was 129 nM. In addition, the 50% inhibitory concentration (IC50) in assay [3] worked out at 0.097 nM.
In the same order, the values of `Cc1c(COc2cc(OCc3cncc(C#N)c3)c(CN3C[C@@H](O)C[C@H]3C(=O)O)cc2Cl)cccc1-c1cccc(-c2ccc(OCCNCCO)cc2)c1C` [Example 510] are 147 nM, 232 nM and 0.064 nM.
`Cc1c(COc2cc(OCc3cncc(C#N)c3)c(CN[C@](C)(CO)C(=O)O)cc2Cl)cccc1-c1cccc(-c2ccc(OCCNCCO)cc2)c1C` [Example 511]: the EC50 in assay [1] came to 197 nM. The AC50 in assay [2] worked out at 36.9 nM. The IC50 in assay [3] stood at 0.082 nM.
Take `COc1cc(-c2cccc(-c3cccc(-c4cc(F)c(CNC[C@@H]5CCC(=O)N5)c(OC)c4)c3Cl)c2Cl)cc(F)c1CNC[C@@H]1CCC(=O)N1` [Example 512]: in assay [1], the EC50 came to 131 nM. For the same compound, in assay [2], the AC50 was 255 nM. Also, the IC50 in assay [3] was found to be 0.526 nM.
On to `COc1cc(-c2cccc(-c3cccc(-c4ccc(CNC[C@@H]5CCC(=O)N5)c(OC)c4)c3Cl)c2Cl)ccc1CNC[C@@H]1CCC(=O)N1` [Example 513], for which the EC50 in assay [1] was determined as 47 nM. In addition, in assay [2], the AC50 came to 89.3 nM. Further, the IC50 in assay [3] stood at 0.301 nM.
In the same order, the values of `Cc1c(COc2cc(OCc3cncc(C#N)c3)c(CNC[C@@H](O)CC(=O)O)cc2Cl)cccc1-c1cccc(-c2ccc(CNC[C@@H](O)CC(=O)O)c(-c3ccccc3)c2)c1C` [Example 514] are 156 nM, 359 nM and 0.735 nM.
For `Cc1c(COc2cc(OCc3cncc(C#N)c3)c(CN[C@@](C)(CO)C(=O)O)cc2Cl)cccc1-c1cccc(-c2ccc(OCCN3CCC4(CCCNC4=O)CC3)cc2)c1C` [Example 516], in assay [1], the concentration giving a half-maximal response (EC50) was determined as 92 nM. For the same compound, in assay [2], the AC50 was 104 nM. For the same compound, the IC50 in assay [3] is 0.065 nM.
`Cc1c(COc2cc(OCc3cncc(C#N)c3)c(CN[C@@](C)(CO)C(=O)O)cc2Cl)cccc1-c1cccc(-c2ccc(OCCNC[C@@H]3CCC(=O)N3)cc2)c1C` [Example 517]: the EC50 in assay [1] was determined as 154 nM. In addition, the AC50 in assay [2] worked out at 91.7 nM. In addition, the IC50 in assay [3] was found to be 0.064 nM.
In the case of `Cc1c(COc2cc(OCc3cncc(C#N)c3)c(CN[C@@](C)(CO)C(=O)O)cc2Cl)cccc1-c1cccc(-c2ccc(OCCNC[C@H]3CCC(=O)N3)cc2)c1C` [Example 518], the 50% effective concentration (EC50) in assay [1] stood at 159 nM. In assay [2], the AC50 came to 96.1 nM. Besides, in assay [3], the IC50 turned out to be 0.064 nM.
Consider `Cc1c(COc2cc(OCc3cncc(C#N)c3)c(CNC[C@@H](O)CC(=O)O)cc2Cl)cccc1-c1cccc(-c2ccc(OCCN3CC4(CCC(=O)N4)C3)cc2)c1C` [Example 519], for which, in assay [1], the EC50 was 125 nM. Moreover, in assay [2], the half-maximal activity concentration (AC50) turned out to be 103 nM. Further, the IC50 in assay [3] amounted to 0.064 nM.
Regarding `Cc1c(COc2cc(OCc3cncc(C#N)c3)c(CN[C@@](C)(CO)C(=O)O)cc2Cl)cccc1-c1cccc(-c2ccc(OCCN3CC4(CCC(=O)N4)C3)cc2)c1C` [Example 520], the EC50 in assay [1] came out at 97 nM. Moreover, in assay [2], the AC50 was 57.5 nM. In addition, the IC50 in assay [3] was found to be 0.064 nM.
As to `Cc1c(COc2cc(OCc3cncc(C#N)c3)c(CN[C@@](C)(CO)C(=O)O)cc2Cl)cccc1-c1cccc(-c2ccc(OCCN3CCC4(CC3)CNC(=O)C4)cc2)c1C` [Example 521], the EC50 in assay [1] stood at 106 nM. Also, in assay [2], the AC50 was 125 nM. The IC50 in assay [3] is 0.064 nM.
With `Cc1c(COc2cc(OCc3cncc(C(=O)O)c3)c(CN[C@@](C)(CO)C(=O)O)cc2Cl)cccc1-c1cccc(-c2ccc(OCCN3CC[C@@H](O)C3)cc2)c1C` [Example 522], in assay [1], the EC50 amounted to 195 nM. Besides, the AC50 in assay [2] turned out to be 74.3 nM. Besides, the IC50 in assay [3] was determined as 0.064 nM.
On to `COc1cc(OCc2cccc(-c3cccc(COc4cc(OC)c(CNC[C@@H](O)CC(=O)O)cc4C#N)c3C)c2C)c(C#N)cc1CNC[C@@H](O)CC(=O)O` [Example 523], for which the EC50 in assay [1] is 129 nM. In addition, the concentration at half-maximal activity (AC50) in assay [2] is at least 10000 nM. Further, the 50% inhibitory concentration (IC50) in assay [3] was found to be 0.295 nM.
For `COc1nc(O[C@H]2CCc3c(-c4cccc(-c5cnc6c(CN7CC8(CNC(=O)C8)C7)cn(C)c6n5)c4Cl)cccc32)c(Cl)cc1CN1CCC[C@@H](C(=O)O)C1` [Example 524], the EC50 in assay [1] was 39 nM. Also, in assay [2], the AC50 came to 67.7 nM. In assay [3], the IC50 was 0.064 nM.
As to `COc1nc(O[C@H]2CCc3c(-c4cccc(-c5cnc6c(CN7CC8(CNC(=O)C8)C7)cn(C)c6n5)c4Cl)cccc32)c(Cl)cc1CN1CC[C@@H](C(=O)O)C1` [Example 525], in assay [1], the EC50 stood at 27 nM. Further, in assay [2], the AC50 is 34.8 nM. The IC50 in assay [3] was determined as 0.064 nM.
With `COc1nc(O[C@H]2CCc3c(-c4cccc(-c5cnc6c(CNC[C@@H]7CCC(=O)N7)cn(C)c6n5)c4Cl)cccc32)c(Cl)cc1CN1CCC[C@@H](C(=O)O)C1` [Example 526], in assay [1], the EC50 was 110 nM. Further, the AC50 in assay [2] came out at 73.6 nM. Further, the IC50 in assay [3] stood at 0.064 nM.
As for `COc1nc(O[C@H]2CCc3c(-c4cccc(-c5cnc6c(CN7CC8(CNC(=O)C8)C7)cn(C)c6n5)c4Cl)cccc32)c(Cl)cc1CN1CC(C(=O)O)C1` [Example 527], in assay [1], the EC50 came out at 46 nM. In assay [2], the AC50 was 69.9 nM. Besides, the IC50 in assay [3] came to 0.064 nM.
The matching figures for `COc1nc(O[C@H]2CCc3c(-c4cccc(-c5cnc6c(CNC[C@@H]7CCC(=O)N7)cn(C)c6n5)c4Cl)cccc32)c(Cl)cc1CN1CC[C@@H](C(=O)O)C1` [Example 528]: 89 nM, 63.3 nM and 0.068 nM.
Consider `COc1nc(O[C@H]2CCc3c(-c4cccc(-c5cnc6c(CNC[C@@H]7CCC(=O)N7)cn(C)c6n5)c4Cl)cccc32)c(Cl)cc1CN1CC(C(=O)O)C1` [Example 529], for which the EC50 in assay [1] was determined as 165 nM. Further, in assay [2], the AC50 came to 56.2 nM. Moreover, the IC50 in assay [3] amounted to 0.064 nM.
Regarding `N#Cc1cncc(COc2nc(OCc3cccc(-c4cccc(-c5ccc(CNC[C@@H]6CCC(=O)N6)cc5)c4Cl)c3Cl)c(Br)cc2CNC[C@@H]2CCC(=O)N2)c1` [Example 540], the half-maximal effective concentration (EC50) in assay [1] worked out at 103 nM. In assay [2], the AC50 was found to be 126 nM. For the same compound, the IC50 in assay [3] turned out to be 0.593 nM.
Regarding `COc1cc(-c2cccc(-c3cccc(COc4nc(OCc5cncc(C#N)c5)c(CNC[C@@H]5CCC(=O)N5)cc4Br)c3Cl)c2Cl)ccc1CNC[C@@H]1CCC(=O)N1` [Example 541], in assay [1], the EC50 came out at 93 nM. In addition, the AC50 in assay [2] amounted to 70.4 nM. Further, in assay [3], the IC50 came to 0.641 nM.
`COc1cc(-c2cccc(-c3cccc(COc4nc(OC)c(CNC[C@@H]5CCC(=O)N5)cc4Br)c3Cl)c2Cl)ccc1CNC[C@@H]1CCC(=O)N1` [Example 542]: the EC50 in assay [1] is 197 nM. Moreover, the AC50 in assay [2] was 136 nM. In addition, in assay [3], the IC50 amounted to 1.24 nM.
